{"source": "PubChem BioAssay (NCI)", "assay_in_all_cases": "DTP human tumour cell line panel, 48 h", "key": {"DMS 114 small cell lung": {"system": "DMS 114 small cell lung"}, "UACC-257 melanoma": {"system": "UACC-257 melanoma"}, "SNB-78 CNS": {"system": "SNB-78 CNS"}, "DLD-1 colon": {"system": "DLD-1 colon"}, "SF-539 CNS": {"system": "SF-539 CNS"}, "SK-MEL-5 melanoma": {"system": "SK-MEL-5 melanoma"}, "MDA-MB-435": {"system": "MDA-MB-435"}, "HCC-2998 colon": {"system": "HCC-2998 colon"}, "SNB-75 CNS": {"system": "SNB-75 CNS"}, "BT-549 breast": {"system": "BT-549 breast"}, "M19-MEL melanoma": {"system": "M19-MEL melanoma"}, "XF 498 CNS": {"system": "XF 498 CNS"}, "MDA-N": {"system": "MDA-N"}}, "note": "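Each compound was tested at five concentrations against cells in 96-well plates for 48 hours. GI50 = concentration required for 50% inhibition of growth. TGI: concentration producing complete growth inhibition.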"}
{"compound": "COc1cc(/C=N/N=C(\\N)NO)ccc1O", "values": [{"measurement": "TGI", "setting": "DMS 114 small cell lung", "result": "> 100", "unit": "µM"}, {"measurement": "TGI", "setting": "UACC-257 melanoma", "result": "> 100", "unit": "µM"}, {"measurement": "TGI", "setting": "SNB-78 CNS", "result": "> 100", "unit": "µM"}, {"measurement": "TGI", "setting": "DLD-1 colon", "result": "> 100", "unit": "µM"}, {"measurement": "TGI", "setting": "SF-539 CNS", "result": "> 100", "unit": "µM"}, {"measurement": "TGI", "setting": "SK-MEL-5 melanoma", "result": "> 100", "unit": "µM"}]}
{"compound": "CC(C)C(=O)Nc1ccc(-c2nc(-c3cccc(OCCN4CCOCC4)c3)c(-c3ccnc(Br)c3)[nH]2)cc1", "values": [{"measurement": "GI50", "setting": "MDA-MB-435", "result": 2.92, "unit": "µM"}, {"measurement": "TGI", "setting": "MDA-MB-435", "result": 10, "unit": "µM"}, {"measurement": "GI50", "setting": "HCC-2998 colon", "result": 3.21, "unit": "µM"}, {"measurement": "TGI", "setting": "HCC-2998 colon", "result": 11.4, "unit": "µM"}, {"measurement": "GI50", "setting": "UACC-257 melanoma", "result": 2.37, "unit": "µM"}, {"measurement": "TGI", "setting": "UACC-257 melanoma", "result": 5.68, "unit": "µM"}, {"measurement": "GI50", "setting": "SNB-75 CNS", "result": 0.647, "unit": "µM"}, {"measurement": "TGI", "setting": "SNB-75 CNS", "result": 4.28, "unit": "µM"}, {"measurement": "GI50", "setting": "BT-549 breast", "result": 2.82, "unit": "µM"}, {"measurement": "TGI", "setting": "BT-549 breast", "result": 17.3, "unit": "µM"}, {"measurement": "GI50", "setting": "SF-539 CNS", "result": 2.3, "unit": "µM"}, {"measurement": "TGI", "setting": "SF-539 CNS", "result": 8.65, "unit": "µM"}, {"measurement": "GI50", "setting": "SK-MEL-5 melanoma", "result": 1.79, "unit": "µM"}, {"measurement": "TGI", "setting": "SK-MEL-5 melanoma", "result": 3.25, "unit": "µM"}]}
{"compound": "CC(C)NC(=O)OCc1nnn2c1CCC2", "values": [{"measurement": "TGI", "setting": "HCC-2998 colon", "result": "> 100", "unit": "µM"}, {"measurement": "TGI", "setting": "UACC-257 melanoma", "result": "> 100", "unit": "µM"}, {"measurement": "TGI", "setting": "SNB-78 CNS", "result": "> 100", "unit": "µM"}, {"measurement": "TGI", "setting": "M19-MEL melanoma", "result": "> 100", "unit": "µM"}, {"measurement": "TGI", "setting": "SNB-75 CNS", "result": "> 100", "unit": "µM"}, {"measurement": "TGI", "setting": "XF 498 CNS", "result": "> 100", "unit": "µM"}, {"measurement": "TGI", "setting": "DLD-1 colon", "result": "> 100", "unit": "µM"}, {"measurement": "TGI", "setting": "SF-539 CNS", "result": "> 100", "unit": "µM"}, {"measurement": "TGI", "setting": "SK-MEL-5 melanoma", "result": "> 100", "unit": "µM"}]}
{"compound": "O=c1ccc2c(Cl)cccc2o1", "values": [{"measurement": "TGI", "setting": "MDA-MB-435", "result": "> 100", "unit": "µM"}, {"measurement": "TGI", "setting": "HCC-2998 colon", "result": "> 100", "unit": "µM"}, {"measurement": "TGI", "setting": "UACC-257 melanoma", "result": "> 100", "unit": "µM"}, {"measurement": "TGI", "setting": "SNB-75 CNS", "result": "> 100", "unit": "µM"}, {"measurement": "TGI", "setting": "MDA-N", "result": "> 100", "unit": "µM"}, {"measurement": "TGI", "setting": "BT-549 breast", "result": "> 100", "unit": "µM"}, {"measurement": "TGI", "setting": "SF-539 CNS", "result": "> 100", "unit": "µM"}, {"measurement": "TGI", "setting": "SK-MEL-5 melanoma", "result": "> 100", "unit": "µM"}]}
{"compound": "CSC1=C(SC)C(=O)c2cn(C)c(=O)cc2C1=O", "values": [{"measurement": "TGI", "setting": "MDA-MB-435", "result": 3.35, "unit": "µM"}, {"measurement": "TGI", "setting": "HCC-2998 colon", "result": 35.8, "unit": "µM"}, {"measurement": "TGI", "setting": "UACC-257 melanoma", "result": 7.05, "unit": "µM"}, {"measurement": "TGI", "setting": "SNB-75 CNS", "result": 22.5, "unit": "µM"}, {"measurement": "TGI", "setting": "MDA-N", "result": 3.06, "unit": "µM"}, {"measurement": "TGI", "setting": "BT-549 breast", "result": 3.71, "unit": "µM"}, {"measurement": "TGI", "setting": "SF-539 CNS", "result": 25.3, "unit": "µM"}, {"measurement": "TGI", "setting": "SK-MEL-5 melanoma", "result": 3.15, "unit": "µM"}]}
{"compound": "CC(C(=O)NCCNC(=O)CCCC(=O)N(C)O)C(=O)NCCNC(=O)CCCC(=O)N(C)O", "values": [{"measurement": "TGI", "setting": "MDA-MB-435", "result": "> 100", "unit": "µM"}, {"measurement": "TGI", "setting": "HCC-2998 colon", "result": "> 100", "unit": "µM"}, {"measurement": "TGI", "setting": "UACC-257 melanoma", "result": "> 100", "unit": "µM"}, {"measurement": "TGI", "setting": "SNB-75 CNS", "result": "> 100", "unit": "µM"}, {"measurement": "TGI", "setting": "MDA-N", "result": "> 100", "unit": "µM"}, {"measurement": "TGI", "setting": "SK-MEL-5 melanoma", "result": "> 100", "unit": "µM"}]}
{"compound": "C1=Nc2ccccc2Cn2nncc21", "values": [{"measurement": "TGI", "setting": "HCC-2998 colon", "result": "> 100", "unit": "µM"}, {"measurement": "TGI", "setting": "M19-MEL melanoma", "result": "> 100", "unit": "µM"}, {"measurement": "TGI", "setting": "XF 498 CNS", "result": "> 100", "unit": "µM"}, {"measurement": "TGI", "setting": "DLD-1 colon", "result": "> 100", "unit": "µM"}, {"measurement": "TGI", "setting": "SF-539 CNS", "result": "> 100", "unit": "µM"}]}
{"compound": "OC(c1ccccc1)C1CC2C=CC1C2", "note": "(centres undefined)", "values": [{"measurement": "TGI", "setting": "DMS 114 small cell lung", "result": "> 100", "unit": "µM"}, {"measurement": "TGI", "setting": "UACC-257 melanoma", "result": "> 100", "unit": "µM"}, {"measurement": "TGI", "setting": "SNB-78 CNS", "result": "> 100", "unit": "µM"}, {"measurement": "TGI", "setting": "M19-MEL melanoma", "result": "> 100", "unit": "µM"}, {"measurement": "TGI", "setting": "SNB-75 CNS", "result": "> 100", "unit": "µM"}, {"measurement": "TGI", "setting": "XF 498 CNS", "result": "> 100", "unit": "µM"}, {"measurement": "TGI", "setting": "DLD-1 colon", "result": "> 100", "unit": "µM"}, {"measurement": "TGI", "setting": "SF-539 CNS", "result": "> 100", "unit": "µM"}, {"measurement": "TGI", "setting": "SK-MEL-5 melanoma", "result": "> 100", "unit": "µM"}]}
{"compound": "COc1ccc(N2C(=O)C(=O)N(C)C2=O)c2ccccc12", "values": [{"measurement": "TGI", "setting": "MDA-MB-435", "result": "> 10", "unit": "µM"}, {"measurement": "TGI", "setting": "HCC-2998 colon", "result": "> 10", "unit": "µM"}, {"measurement": "TGI", "setting": "SNB-75 CNS", "result": "> 10", "unit": "µM"}, {"measurement": "TGI", "setting": "SF-539 CNS", "result": "> 10", "unit": "µM"}, {"measurement": "TGI", "setting": "SK-MEL-5 melanoma", "result": "> 10", "unit": "µM"}]}
{"compound": "COC1=CC(=O)c2c(c(COC(C)=O)cn2C)C1=O", "values": [{"measurement": "TGI", "setting": "MDA-MB-435", "result": 0.28, "unit": "µM"}, {"measurement": "TGI", "setting": "UACC-257 melanoma", "result": 1.43, "unit": "µM"}, {"measurement": "TGI", "setting": "SNB-75 CNS", "result": 0.88, "unit": "µM"}, {"measurement": "TGI", "setting": "MDA-N", "result": 0.253, "unit": "µM"}, {"measurement": "TGI", "setting": "BT-549 breast", "result": 0.0911, "unit": "µM"}, {"measurement": "TGI", "setting": "SF-539 CNS", "result": 0.313, "unit": "µM"}, {"measurement": "TGI", "setting": "SK-MEL-5 melanoma", "result": 0.39, "unit": "µM"}]}
{"compound": "CC1(CO)C(O)CCC2(C)C1C(O)CC1CC3CC12CCC3(O)CO", "note": "(centres undefined)", "values": [{"measurement": "TGI", "setting": "HCC-2998 colon", "result": "> 225", "unit": "µM"}, {"measurement": "TGI", "setting": "DMS 114 small cell lung", "result": "> 225", "unit": "µM"}, {"measurement": "TGI", "setting": "UACC-257 melanoma", "result": "> 225", "unit": "µM"}, {"measurement": "TGI", "setting": "SNB-78 CNS", "result": "> 225", "unit": "µM"}, {"measurement": "TGI", "setting": "M19-MEL melanoma", "result": "> 153", "unit": "µM"}, {"measurement": "TGI", "setting": "SNB-75 CNS", "result": "> 225", "unit": "µM"}, {"measurement": "TGI", "setting": "XF 498 CNS", "result": "> 225", "unit": "µM"}, {"measurement": "TGI", "setting": "DLD-1 colon", "result": "> 225", "unit": "µM"}, {"measurement": "TGI", "setting": "SF-539 CNS", "result": "> 225", "unit": "µM"}, {"measurement": "TGI", "setting": "SK-MEL-5 melanoma", "result": "> 225", "unit": "µM"}]}
{"compound": "Fc1ccc(Nc2ncc(-c3cc(F)c(Cl)cc3Cl)s2)cc1Cl", "values": [{"measurement": "GI50", "setting": "MDA-MB-435", "result": 15.4, "unit": "µM"}, {"measurement": "TGI", "setting": "MDA-MB-435", "result": 32.5, "unit": "µM"}, {"measurement": "GI50", "setting": "UACC-257 melanoma", "result": 14.3, "unit": "µM"}, {"measurement": "TGI", "setting": "UACC-257 melanoma", "result": 29.2, "unit": "µM"}, {"measurement": "GI50", "setting": "SNB-75 CNS", "result": 39.3, "unit": "µM"}, {"measurement": "TGI", "setting": "SNB-75 CNS", "result": "> 100", "unit": "µM"}, {"measurement": "GI50", "setting": "BT-549 breast", "result": 20.2, "unit": "µM"}, {"measurement": "TGI", "setting": "BT-549 breast", "result": 45.1, "unit": "µM"}, {"measurement": "GI50", "setting": "SF-539 CNS", "result": 10.5, "unit": "µM"}, {"measurement": "TGI", "setting": "SF-539 CNS", "result": 32.5, "unit": "µM"}, {"measurement": "GI50", "setting": "SK-MEL-5 melanoma", "result": 12.3, "unit": "µM"}, {"measurement": "TGI", "setting": "SK-MEL-5 melanoma", "result": 25.9, "unit": "µM"}]}
